# Laboratory results taken from patent US20260053861A1, “CELL COMPOSITIONS AND METHODS OF USING THE SAME” (THE REGENTS OF THE UNIVERSITY OF CALIFORNIA, priority 2022, published 2026).
# Structures can show the parent of a compound that is named as a salt. Residues, ends and D or L forms follow the SMILES beside them.
# Test system: hPSC-SCs
# Conditions: not given
row,SMILES,z.score.t
1,CC[C@H]1[C@@H]2C[C@H]3[C@@H]4N(C)c5ccccc5[C@]45C[C@@H]([C@H]2[C@H]5O)N3[C@@H]1O [Ajmaline],0.1767
2,CCCSc1ccc2nc(NC(=O)OC)[nH]c2c1 [Albendazole],−1.079
3,CCC(=O)OCC(=O)[C@@]1(OC(=O)CC)[C@H](C)C[C@H]2[C@H]3[C@H]([C@@H](O)C[C@@]21C)[C@@]1(C)C=CC(=O)C=C1C[C@H]3Cl [Alclometasone dipropionate],1.456
4,C=CC[N@@+]12CC[C@@]34c5ccccc5N5/C=C6/[C@H]7C[C@H]8[C@@]9(CC[N@@+]8(CC=C)C/C7=C/CO)c7ccccc7N(/C=C(/[C@@H](C[C@@H]31)/C(=C\CO)C2)[C@H]54)[C@@H]69.[Cl-].[Cl-] [Alcuronium chloride],−0.8925
5,CC(=O)OCC(=O)[C@H]1CC[C@H]2[C@@H]3CC[C@H]4C[C@H](O)CC[C@]4(C)[C@H]3C(=O)C[C@]12C [Alfadolone acetate],0.3651
6,NCCCCCC(=O)O [Aminocaproic acid],−0.4749
7,CN(C)CCC=C1c2ccccc2CCc2ccccc21.Cl [Amitryptiline hydrochloride],−0.7142
8,CCCc1ncc(C[n+]2ccccc2C)c(N)n1 [Amprolium hydrochloride],−1.615
9,c1cncc([C@@H]2CCCCN2)c1 [Anabasine],−0.1239
10,C[C@]12CC[C@@H](O)C[C@@H]1CC[C@@H]1[C@@H]2CC[C@]2(C)C(=O)CC[C@@H]12 [Androsterone],−1.265
11,COc1ccc(C[C@H]2NC[C@H](O)[C@H]2OC(C)=O)cc1 [Anisomycin],−2.056
12,Cc1cc(=O)n(-c2ccccc2)n1C [Antipyrine],−0.2131
13,COC(=O)C1=CCCN(C)C1 [Arecoline hydrobromide],−0.7049
14,C=C1[C@@H]2CC[C@H]3[C@]4(C)C[C@H](O[C@@H]5O[C@H](CO)[C@@H](OS(=O)(=O)O)[C@H](OS(=O)(=O)O)[C@H]5OC(=O)CC(C)C)C[C@@H](C(=O)O)[C@H]4CC[C@]3(C2)[C@@H]1O [Atractyloside potassium salt],−0.7376
15,CN1[C@@H]2CC[C@H]1C[C@@H](OC(=O)C(CO)c1ccccc1)C2 (stereo partly drawn) [Atropine sulfate monohydrate],−0.9654
16,CC1=CC(=O)C2=C(C)C[C@H](O)[C@@H]3[C@H](OC(=O)[C@H]3C)[C@H]12 [Austricine hydrate],−0.411
17,OC(c1ccccc1)(c1ccccc1)C1CCNCC1 [Azacyclonol],0.5179
18,"Cc1n[nH]c(=O)[nH]c1=O [Azathymine, 6]",−0.5337
19,CCC1(C)CC(=O)NC(=O)C1 [Bemegride],0.3241

# Same assay, conditions: HTS viability of hPSC-SCs in the presence of 30 mM glucose; Prestwick library; Table S4
row,SMILES,z.score.t
1,COC(=O)C1=CO[C@@H](C)[C@H]2CN3CCc4c([nH]c5ccccc45)[C@@H]3C[C@H]12.Cl [Ajmalicine hydrochloride],−0.6111
2,CCCCC(CC)CNC(=N)NC(=N)NCCCCCCNC(=N)NC(=N)NCC(CC)CCCC (stereo not drawn) [Alexidine dihydrochloride],−1.733
3,COc1cc2nc(N(C)CCCNC(=O)C3CCCO3)nc(N)c2cc1OC (stereo not drawn) [Alfuzosin hydrochloride],−1.061
4,C=CCN1CCCC1CNC(=O)c1cc2[nH]nnc2cc1OC (stereo not drawn) [Alizapride HCl],0.5437
5,NC(=O)NC1NC(=O)NC1=O (stereo not drawn) [Allantoin],0.8036
6,C=CCc1ccccc1OCC(O)CNC(C)C (stereo not drawn) [Alprenolol hydrochloride],−0.2572
7,CCCCC[C@H](O)/C=C/[C@H]1[C@H](O)CC(=O)[C@@H]1CCCCCCC(=O)O [Alprostadil],0.3375
8,C=CCSCC1Nc2cc(Cl)c(S(N)(=O)=O)cc2S(=O)(=O)N1 (stereo not drawn) [Althiazide],−0.1239
9,CN(C)c1nc(N(C)C)nc(N(C)C)n1 [Altretamine],−0.7567
10,Nc1c(Br)cc(Br)cc1CN[C@H]1CC[C@H](O)CC1 [Ambroxol hydrochloride],0.837
11,Cc1c(N(C)C)c(=O)n(-c2ccccc2)n1C [Amidopyrine],−0.2278
12,NCC[C@H](O)C(=O)N[C@@H]1C[C@H](N)[C@@H](O[C@H]2O[C@H](CN)[C@@H](O)[C@H](O)[C@H]2O)[C@H](O)[C@H]1O[C@H]1O[C@H](CO)[C@@H](O)[C@H](N)[C@H]1O [Amikacin hydrate],−0.4543
13,N=C(N)NC(=O)c1nc(Cl)c(N)nc1N [Amiloride hydrochloride dihydrate],0.07016
14,Nc1ccc(C(=O)NCC(=O)O)cc1 [Aminohippuric acid],0.8825
15,Cn1c(=O)c2[nH]cnc2n(C)c1=O [Aminophylline],1.208
16,"c1ccc(CNc2ncnc3[nH]cnc23)cc1 [Aminopurine, 6-benzyl]",0.3206
17,CCCCc1oc2ccccc2c1C(=O)c1cc(I)c(OCCN(CC)CC)c(I)c1 [Amiodarone hydrochloride],−1.609
18,CN(C)CCCO[C@@H]1[C@H]2OC(C)(C)O[C@H]2O[C@@H]1[C@H](O)CO [Amiprilose hydrochloride],1.178
19,CCN(CC)Cc1cc(Nc2ccnc3cc(Cl)ccc23)ccc1O [Amodiaquin dihydrochloride dihydrate],−1.767
20,Clc1ccc2c(c1)C(N1CCNCC1)=Nc1ccccc1O2 [Amoxapine],−0.09426
21,CC1(C)S[C@@H]2[C@H](NC(=O)[C@H](N)c3ccc(O)cc3)C(=O)N2[C@H]1C(=O)O [Amoxicillin],1.457
22,C[C@@H]1[C@H](O)[C@@H](C)/C=C/C=C/C=C/C=C/C=C/C=C/C=C/[C@H](O[C@@H]2O[C@H](C)[C@@H](O)[C@H](N)[C@@H]2O)C[C@@H]2O[C@](O)(C[C@@H](O)C[C@@H](O)[C@H](O)CC[C@@H](O)C[C@@H](O)CC(=O)O[C@H]1C)C[C@H](O)[C@H]2C(=O)O [Amphotericin B],0.7312
23,CC1(C)S[C@@H]2[C@H](NC(=O)[C@H](N)c3ccccc3)C(=O)N2[C@H]1C(=O)O [Ampicillin trihydrate],1.287
24,Cc1c(N)c(=O)n(-c2ccccc2)n1C [Ampyrone],0.4205
25,Nc1cc(-c2ccncc2)c[nH]c1=O [Amrinone],−1.025

row,SMILES,z.score.t
1,c1ccc(CN(CC2=NCCN2)c2ccccc2)cc1 [Antazoline hydrochloride],−0.004573
2,"Cc1c(O)c(=O)n(-c2ccccc2)n1C [Antipyrine, 4-hydroxy]",0.04029
3,O=c1cc(-c2ccc(O)cc2)oc2cc(O)cc(O)c12 [Apigenin],−0.2904
4,CN[C@@H]1[C@@H](O[C@H]2O[C@H](CO)[C@@H](N)[C@H](O)[C@H]2O)OC2C[C@@H](N)[C@@H](O[C@H]3[C@H](O)[C@@H](O)[C@H](N)C[C@@H]3N)OC2[C@@H]1O (stereo partly drawn) [Apramycin],0.1828
5,OC[C@H]1O[C@@H](Oc2ccc(O)cc2)[C@H](O)[C@@H](O)[C@@H]1O [Arbutin],−0.2611
6,NC(N)=NCCCCN=C(N)N [Arcaine sulfate],−0.7567
7,C[C@@H]1CC[C@H]2[C@@H](C)C(=O)O[C@@H]3O[C@@]4(C)CC[C@@H]1[C@]32OO4 [Artemisinin],−0.5919
8,CCCNC(C)C(=O)Nc1c(C)csc1C(=O)OC (stereo not drawn) [Articaine hydrochloride],0.8481
9,O=C1O[C@H]([C@@H](O)CO)C(O)=C1O [Ascorbic acid],−0.7233
10,COc1ccc(CCN2CCC(Nc3nc4ccccc4n3Cc3ccc(F)cc3)CC2)cc1 [Astemizole],−1.866
11,O=C1C(O)=C([C@H]2CC[C@H](c3ccc(Cl)cc3)CC2)C(=O)c2ccccc21 [Atovaquone],−1.62
12,COc1ccc(CC2c3cc(OC)c(OC)cc3CC[N+]2(C)CCC(=O)OCCCCCOC(=O)CC[N+]2(C)CCc3cc(OC)c(OC)cc3C2Cc2ccc(OC)c(OC)c2)cc1OC (stereo not drawn) [Atracurium besylate],0.5041
13,Nc1ncn([C@@H]2O[C@H](CO)[C@@H](O)[C@H]2O)c(=O)n1 [Azacytidine-5],−2.144
14,Nc1nc(O)c2[nH]nnc2n1 [Azaguanine-8],−1.365
15,O=C(CCCN1CCN(c2ccccn2)CC1)c1ccc(F)cc1 [Azaperone],−0.9039
16,CCCC1C(=O)N2C(N(C)C)=Nc3ccc(C)cc3N2C1=O (stereo not drawn) [Azapropazone],1.176
17,Cn1cnc([N+](=O)[O-])c1Sc1ncnc2nc[nH]c12 [Azathioprine],0.4486
18,CC1(C)S[C@@H]2[C@H](NC(=O)[C@H](NC(=O)N3CCNC3=O)c3ccccc3)C(=O)N2[C@H]1C(=O)O [Azlocillin sodium salt],1.635
19,C[C@H]1[C@H](NC(=O)/C(=N\OC(C)(C)C(=O)O)c2csc(N)n2)C(=O)N1S(=O)(=O)O [Aztreonam],1.36
20,CCOC(=O)OC(C)OC(=O)[C@@H]1N2C(=O)[C@@H](NC(=O)[C@H](N)c3ccccc3)[C@H]2SC1(C)C (stereo partly drawn) [Bacampicillin hydrochloride],0.3231
21,"CC[C@H](C)[C@H](N)C1=N[C@H](C(=O)N[C@@H](CC(C)C)C(=O)N[C@H](CCC(=O)O)C(=O)N[C@H](C(=O)N[C@H]2CCCCNC(=O)[C@H](CC(N)=O)NC(=O)[C@@H](CC(=O)O)NC(=O)[C@H](Cc3cnc[nH]3)NC(=O)[C@@H](Cc3ccccc3)NC(=O)[C@H]([C@@H](C)CC)NC(=O)[C@@H](CCCN)NC2=O)[C@@H](C)CC)CS1 [Bacitracin] (HELM PEPTIDE1{[CC[C@H](C)[C@H](N)C1=N[C@H](C(=O)[*:2])CS1].L.[dE].I.K.[NCCC[C@@H](N[*:1])C(=O)[*:2]].I.[dF].H.[dD].N}$PEPTIDE1,PEPTIDE1,5:R3-11:R2$$$V2.0)",1.163
22,O=C(O)CCNC(=O)c1ccc(/N=N/c2ccc(O)c(C(=O)O)c2)cc1 [Balsalazide Sodium],0.7914
23,CN(C)C(=O)Oc1cc(OC(=O)N(C)C)cc(C(O)CNC(C)(C)C)c1 (stereo not drawn) [Bambuterol hydrochloride],−0.5919
24,CCC(=O)OCC(=O)[C@@]1(OC(=O)CC)[C@@H](C)C[C@H]2[C@@H]3CCC4=CC(=O)C=C[C@]4(C)[C@@]3(Cl)[C@@H](O)C[C@@]21C [Beclomethasone dipropionate],−0.2136
25,NS(=O)(=O)c1cc2c(cc1C(F)(F)F)NC(Cc1ccccc1)NS2(=O)=O (stereo not drawn) [Bendroflumethiazide],−1.107
